Test results: paper PMC10385850, “Modified Hederagenin Derivatives Demonstrate Ex Vivo Anthelmintic Activity against Fasciola hepatica” (Pharmaceutics, 2023)

Tested on: F. hepatica newly excysted juveniles (NEJs), Italian strain
Test: Ex vivo screen against newly excysted juveniles (NEJs), phenotype and motility scoring
Type: cell-based, Fasciola hepatica
Conditions: 10 µM; for Average motility of 25 NEJs with 95% CI, 24 hours / Average motility of 25 NEJs with 95% CI, 48 hours / Average motility of 25 NEJs with 95% CI, 72 hours: motility score 1 good/normal to 5 no movement; for Average phenotype of 25 NEJs with 95% CI, 24 hours / Average phenotype of 25 NEJs with 95% CI, 48 hours / Average phenotype of 25 NEJs with 95% CI, 72 hours: ultrastructure score 1 normal to 6 dead or dissolved; for Activity against NEJs (first screen), in words: 72 h co-culture
Procedure: […] The NEJs were excysted from metacercariae and assayed at 10 μM (in 0.1% DMSO) final concentration alongside negative (0.1% DMSO) and positive (10 μM TCBZ, in 0.1% DMSO) controls as previously described. The MC and IVL compound series were screened separately.
The motility (1—good/normal; 2—moderate; 3—low; 4—very little; 5—no movement) and phenotypic (ultrastructural changes) scores were noted according to a previously described scoring matrix (Figure S1 and Table S2).

| SMILES | Average motility of 25 NEJs with 95% CI, 24 hours | Average phenotype of 25 NEJs with 95% CI, 24 hours | Average motility of 25 NEJs with 95% CI, 48 hours | Average phenotype of 25 NEJs with 95% CI, 48 hours | Average motility of 25 NEJs with 95% CI, 72 hours | Average phenotype of 25 NEJs with 95% CI, 72 hours | Activity against NEJs (first screen), in words |
| --- | --- | --- | --- | --- | --- | --- | --- |
| CC1(C)CC[C@]2(N=C=O)CC[C@]3(C)C(=CCC4[C@@]5(C)CCC6OC(C)(C)OC[C@@]6(C)C5CC[C@]43C)C2C1 (stereo partly drawn) [MC015, (4aR,6aR,6bS,8aS,14bR)-8a-Isocyanato-2,2,4a,6a,6b,11,11,14b-octamethyl-4a,4b,5,6,6a,6b,7,8,8a,9, 10,11,12,12a,14,14a,14b,15,16,16a-eicosahydro-4H-piceno[3,4-d][1,3]dioxine] | 2.56 (2;3) | 2.24 (1.6;2.8) | 3.08 (2.4;3.6) | 2.84 (2;3.5) | 3.12 (2.4;3.7) | 3.56 (2.7;4.3) | None of the three passed the first screen |
| CC1(C)CC[C@]2(NC(=O)NCc3ccccc3)CC[C@]3(C)C(=CCC4[C@@]5(C)CCC6OC(C)(C)OC[C@@]6(C)C5CC[C@]43C)C2C1 (stereo partly drawn) [MC017, 1-Benzyl-3-((4aR,6aR,6bS,8aS,14bR)-2,2,4a,6a,6b,11,11,14b-octamethyl-4a,5,6,6a,6b,7,8,9,10,11,12,12a,14,14a,14b,15,16,16a-octadecahydro-4H-piceno[3,4-d][1,3]dioxin-8a(4bH)-yl)urea] | 4.12 (3.7;4.5) | 3.28 (2.5;4) | 4.0 (3.5; 4.4) | 4.04 (3.3;4.6) | 3.92 (3.3; 4.4) | 4.12 (3.4;4.7) |  |
| CCCCOC(=O)N[C@]12CCC(C)(C)CC1C1=CCC3[C@@]4(C)CCC5OC(C)(C)OC[C@@]5(C)C4CC[C@@]3(C)[C@]1(C)CC2 (stereo partly drawn) [MC019, Butyl ((4aR,6aR,6bS,8aS,14bR)-2,2,4a,6a,6b,11,11,14b-octamethyl-4a,5,6,6a,6b,7,8,9,10, 11,12,12a,14, 14a,14b,15,16,16a-octadecahydro-4H-piceno[3,4-d][1,3]dioxin-8a(4bH)-yl)carbamate] | 2.24 (1.7;2.7) | 2.40 (1.8;2.9) | 4.00 (3.7;4.2) | 3.20 (2.6;3.7) | 4.36 (3.9;4.7) | 3.40 (2.7;4) | inactive against NEJs |
| CCCNC(=O)N[C@]12CCC(C)(C)CC1C1=CCC3[C@@]4(C)CCC5OC(C)(C)OC[C@@]5(C)C4CC[C@@]3(C)[C@]1(C)CC2 (stereo partly drawn) [MC022, 1-((4aR,6aR,6bS,8aS,14bR)-2,2,4a,6a,6b,11,11,14b-Octamethyl-4a,5,6,6a,6b,7,8,9,10,11, 12,12a,14,14a, 14b,15,16,16a-octadecahydro-4H-piceno[3,4-d][1,3]dioxin-8a(4bH)-yl)-3-propylurea] | 2.68 (1.9;3.4) | 4.60 (4.2;4.9) | 4.12 (3.7;4.4) | 5.08 (4.7;5.4) | 4.96 (4.8;5) | 5.88 (5.6;6.1) | inactive against NEJs |
| COC(=O)[C@@H](NC(=O)N[C@]12CCC(C)(C)CC1C1=CCC3[C@@]4(C)CCC5OC(C)(C)OC[C@@]5(C)C4CC[C@@]3(C)[C@]1(C)CC2)C(C)C (stereo partly drawn) [MC027, Methyl (((4aR,6aR,6bS,8aS,14bR)-2,2,4a,6a,6b,11,11,14b-octamethyl-4a,5,6,6a,6b,7,8,9,10, 11,12,12a, 14,14a,14b,15,16,16a-octadecahydro-4H-piceno[3,4-d][1,3]dioxin-8a(4bH)-yl)-carbamoyl)-L-valinate] | 3.48 (2.9;3.9) | 3.32 (2.5;4.1) | 4.72 (4.4;4.9) | 4.64 (3.9;5.3) | 4.76 (4.4;5) | 5.48 (4.9;5.9) |  |
